Tests used:
[1] = molecular target: T1, Cytochrome P450 11B1, mitochondrial (Homo sapiens, UniProt P15538); assay: Inhibition of human CYP11B1 expressed in hamster V79 MZh cells using deoxycorticosterone substrate; format: cell-based
T1 sequence (P15538 whole entry): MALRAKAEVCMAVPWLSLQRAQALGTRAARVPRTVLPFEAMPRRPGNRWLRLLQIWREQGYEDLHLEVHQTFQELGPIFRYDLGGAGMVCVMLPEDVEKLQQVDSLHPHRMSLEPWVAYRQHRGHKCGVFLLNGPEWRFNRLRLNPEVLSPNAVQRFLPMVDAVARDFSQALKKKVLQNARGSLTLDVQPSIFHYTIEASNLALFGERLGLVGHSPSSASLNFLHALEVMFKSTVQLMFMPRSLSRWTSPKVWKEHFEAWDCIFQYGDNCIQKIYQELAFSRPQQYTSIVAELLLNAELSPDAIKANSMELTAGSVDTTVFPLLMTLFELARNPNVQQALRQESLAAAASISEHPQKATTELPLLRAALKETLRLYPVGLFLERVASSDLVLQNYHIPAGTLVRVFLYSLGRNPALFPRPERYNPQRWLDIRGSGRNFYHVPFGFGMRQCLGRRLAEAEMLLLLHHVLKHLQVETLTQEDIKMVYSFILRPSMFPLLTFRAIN

Homo sapiens [2] = organism: Homo sapiens; assay: Selectivity ratio of IC50 for human CYP11B2 to IC50 for human CYP11B1
[3] = molecular target: T2, Cytochrome P450 11B2, mitochondrial (Homo sapiens, UniProt P19099); assay: Inhibition of human CYP11B2 expressed in hamster V79 MZh cells using deoxycorticosterone substrate; format: cell-based
T2 sequence (P19099 whole entry): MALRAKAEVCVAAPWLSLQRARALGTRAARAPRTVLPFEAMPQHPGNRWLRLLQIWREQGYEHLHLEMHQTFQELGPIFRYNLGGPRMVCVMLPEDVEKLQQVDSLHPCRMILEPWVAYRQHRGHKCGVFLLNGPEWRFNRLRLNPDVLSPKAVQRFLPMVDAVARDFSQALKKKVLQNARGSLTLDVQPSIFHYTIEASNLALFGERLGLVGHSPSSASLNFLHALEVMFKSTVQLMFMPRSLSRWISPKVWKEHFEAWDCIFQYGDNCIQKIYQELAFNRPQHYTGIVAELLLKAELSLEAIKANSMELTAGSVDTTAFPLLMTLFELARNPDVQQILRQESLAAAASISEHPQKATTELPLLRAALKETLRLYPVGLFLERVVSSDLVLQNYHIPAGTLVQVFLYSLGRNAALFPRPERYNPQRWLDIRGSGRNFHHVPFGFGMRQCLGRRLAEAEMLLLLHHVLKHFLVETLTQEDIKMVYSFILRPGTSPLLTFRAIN

Homo sapiens [4] = organism: Homo sapiens; assay: Selectivity ratio of IC50 for human placental CYP19 to IC50 for human CYP11B1
Aromatase = molecular target: T3, Aromatase (Homo sapiens, UniProt P11511); assay: Inhibition of human placental CYP19 using androstenedione substrate
T3 sequence (P11511 whole entry): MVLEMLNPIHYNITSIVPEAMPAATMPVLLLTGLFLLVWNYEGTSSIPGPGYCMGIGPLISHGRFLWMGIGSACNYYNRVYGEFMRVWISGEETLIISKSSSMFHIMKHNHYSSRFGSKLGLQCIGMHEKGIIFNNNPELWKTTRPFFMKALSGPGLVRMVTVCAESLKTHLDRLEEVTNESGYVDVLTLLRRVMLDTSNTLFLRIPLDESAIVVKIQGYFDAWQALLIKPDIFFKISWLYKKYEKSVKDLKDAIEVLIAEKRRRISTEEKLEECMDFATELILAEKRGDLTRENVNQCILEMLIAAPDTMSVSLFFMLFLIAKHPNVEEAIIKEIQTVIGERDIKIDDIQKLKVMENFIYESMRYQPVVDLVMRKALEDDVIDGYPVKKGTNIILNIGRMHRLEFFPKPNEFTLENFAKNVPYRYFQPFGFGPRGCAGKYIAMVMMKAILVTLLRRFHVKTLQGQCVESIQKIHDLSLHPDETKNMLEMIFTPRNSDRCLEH

Homo sapiens [5] = organism: Homo sapiens; assay: Selectivity ratio of IC50 for human CYP17 to IC50 for human CYP11B1
[6] = molecular target: T4, Steroid 17-alpha-hydroxylase/17,20 lyase (Homo sapiens, UniProt P05093); assay: Inhibition of human CYP17 expressed in Escherichia coli using progesterone substrate
T4 sequence (P05093 whole entry): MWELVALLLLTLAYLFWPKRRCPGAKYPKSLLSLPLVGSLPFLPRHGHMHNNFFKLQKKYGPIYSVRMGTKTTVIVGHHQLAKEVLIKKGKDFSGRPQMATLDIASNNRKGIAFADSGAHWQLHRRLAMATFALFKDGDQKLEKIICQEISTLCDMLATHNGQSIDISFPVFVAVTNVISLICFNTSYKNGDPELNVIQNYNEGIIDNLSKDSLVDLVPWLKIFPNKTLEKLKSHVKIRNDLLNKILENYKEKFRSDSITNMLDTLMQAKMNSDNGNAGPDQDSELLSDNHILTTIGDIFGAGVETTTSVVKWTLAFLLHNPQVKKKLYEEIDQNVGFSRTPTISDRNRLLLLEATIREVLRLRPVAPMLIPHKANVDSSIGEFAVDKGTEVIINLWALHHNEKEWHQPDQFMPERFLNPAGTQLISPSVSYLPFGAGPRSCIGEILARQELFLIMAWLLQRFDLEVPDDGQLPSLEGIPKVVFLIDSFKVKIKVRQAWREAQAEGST

[7] = molecular target: T5, Cytochrome P450 11B1, mitochondrial (Rattus norvegicus, UniProt P15393); assay: Inhibition of rat CYP11B1 at 2 uM
T5 sequence (P15393 whole entry): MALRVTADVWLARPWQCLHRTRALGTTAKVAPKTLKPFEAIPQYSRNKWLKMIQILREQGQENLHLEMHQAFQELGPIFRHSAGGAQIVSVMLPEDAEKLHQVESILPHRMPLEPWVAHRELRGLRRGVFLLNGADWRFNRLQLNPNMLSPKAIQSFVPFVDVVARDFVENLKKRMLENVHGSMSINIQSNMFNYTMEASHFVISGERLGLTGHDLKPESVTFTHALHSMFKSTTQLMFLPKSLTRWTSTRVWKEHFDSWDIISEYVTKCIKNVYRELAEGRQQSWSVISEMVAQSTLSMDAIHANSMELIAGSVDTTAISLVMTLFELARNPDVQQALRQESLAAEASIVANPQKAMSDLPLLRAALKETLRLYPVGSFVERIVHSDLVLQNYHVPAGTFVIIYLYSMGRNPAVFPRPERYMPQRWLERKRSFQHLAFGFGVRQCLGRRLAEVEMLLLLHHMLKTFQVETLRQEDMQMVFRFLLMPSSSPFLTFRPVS

O=C1CCc2cc(C(C3CC3)n3ccnc3)cc3c2N1CC3 (single isomer, unassigned; (-))
IC50 [1]: 1.5 nM

CC(c1cc2c3c(c1)CCN3C(=O)CC2)(n1ccnc1)n1ccnc1
Ratio IC50 (Homo sapiens [2]): 1.9 | IC50 [3]: 851 nM | IC50 [1]: 438 nM

O=C1CCc2cc(C(C3CCC3)n3ccnc3)cc3c2N1CC3 (configuration not stated)
Ratio IC50 (Homo sapiens [2]): 1.2 | IC50 [3]: 4.2 nM | IC50 [1]: 3.4 nM

O=C1CCc2cc(C(C3CC3)n3ccnc3)cc3c2N1CC3 (stereo in doubt; (+)-4)
IC50 [1]: 10.3 nM

N#Cc1cccc(C(c2cc3c4c(c2)CCN4C(=O)CC3)n2ccnc2)c1 (configuration not stated)
Ratio IC50 (Homo sapiens [2]): 2.1 | IC50 [3]: 304 nM | IC50 [1]: 144 nM

O=C1CCc2cc(C(c3ccccc3F)n3ccnc3)cc3c2N1CC3 (configuration not stated)
Ratio IC50 (Homo sapiens [2]): 0.5 | IC50 [3]: 19 nM | IC50 [1]: 40 nM

COc1ccc(C(c2cc3c4c(c2)CCN4C(=O)CC3)n2ccnc2)cc1 (configuration not stated)
Ratio IC50 (Homo sapiens [4]): 1.1 | IC50 (Aromatase): 43 nM | Ratio IC50 (Homo sapiens [5]): > 125 | IC50 [6]: > 5000 nM | Ratio IC50 (Homo sapiens [2]): 2.6 | IC50 [3]: 104 nM | IC50 [1]: 40 nM

N#Cc1ccc(C(c2cc3c4c(c2)CCN4C(=O)CC3)n2ccnc2)cc1 (configuration not stated)
Ratio IC50 (Homo sapiens [2]): 4.4 | IC50 [3]: 308 nM | IC50 [1]: 70 nM

CCC(c1cc2c3c(c1)CCN3C(=O)CC2)n1ccnc1 (configuration not stated)
Ratio IC50 (Homo sapiens [2]): 0.9 | IC50 [3]: 5.8 nM | IC50 [1]: 6.5 nM

O=C1CCc2cc(C(c3ccco3)n3ccnc3)cc3c2N1CC3 (configuration not stated)
Ratio IC50 (Homo sapiens [2]): 2.4 | IC50 [3]: 47 nM | IC50 [1]: 20 nM

C=C(c1cc2c3c(c1)CCN3C(=O)CC2)n1ccnc1
Ratio IC50 (Homo sapiens [4]): 0.9 | IC50 (Aromatase): 17 nM | Ratio IC50 (Homo sapiens [5]): > 260 | IC50 [6]: > 5000 nM | Ratio IC50 (Homo sapiens [2]): 5.3 | IC50 [3]: 100 nM | IC50 [1]: 19 nM

O=C1CCc2cc(C(c3cccc(F)c3)n3ccnc3)cc3c2N1CC3 (configuration not stated)
Ratio IC50 (Homo sapiens [2]): 0.6 | IC50 [3]: 18 nM | IC50 [1]: 29 nM

O=C1CCc2cc(C(c3ccccc3)n3ccnc3)cc3c2N1CC3 (configuration not stated)
Ratio IC50 (Homo sapiens [2]): 0.7 | IC50 [3]: 33 nM | IC50 [1]: 50 nM

CC(C)C(c1cc2c3c(c1)CCN3C(=O)CC2)n1ccnc1 (configuration not stated)
Ratio IC50 (Homo sapiens [4]): > 357 | IC50 (Aromatase): > 500 nM | Ratio IC50 (Homo sapiens [5]): 1110 | IC50 [6]: 1550 nM | Ratio IC50 (Homo sapiens [2]): 2.7 | IC50 [3]: 3.8 nM | IC50 [1]: 1.4 nM

O=C1CCc2cc(C(c3ccc(F)cc3)n3ccnc3)cc3c2N1CC3 (configuration not stated)
Ratio IC50 (Homo sapiens [2]): 1.1 | IC50 [3]: 29 nM | IC50 [1]: 27 nM

O=C1CCc2cc(C(c3cccs3)n3ccnc3)cc3c2N1CC3 (configuration not stated)
Ratio IC50 (Homo sapiens [2]): 1.4 | IC50 [3]: 18 nM | IC50 [1]: 13 nM

O=C1CCc2cc(C(C3CC3)n3ccnc3)cc3c2N1CC3 (racemic)
inhibition at 2 µM [7]: 91% | IC50 (Aromatase): 228 nM | IC50 [6]: 2880 nM | IC50 [3]: 24 nM | IC50 [1]: 2.2 nM

CC(c1cc2c3c(c1)CCN3C(=O)CC2)n1ccnc1 (configuration not stated)
Ratio IC50 (Homo sapiens [2]): 0.9 | IC50 [3]: 15 nM | IC50 [1]: 17 nM

COc1cccc(C(c2cc3c4c(c2)CCN4C(=O)CC3)n2ccnc2)c1 (configuration not stated)
Ratio IC50 (Homo sapiens [2]): 0.8 | IC50 [3]: 88 nM | IC50 [1]: 110 nM

From ChEMBL document CHEMBL2163333, “Novel imidazol-1-ylmethyl substituted 1,2,5,6-tetrahydropyrrolo[3,2,1-ij]quinolin-4-ones as potent and selective CYP11B1 inhibitors for the treatment of Cushing's syndrome” (J Med Chem, 2012)
